# Test system: mouse Sp2/0 cells
# Test: CTL assay: 51Cr release from target Sp2/0 cells treated with antibody fragments or peptide, with p53 peptide-specific CTLs
# Format: cell-based
# Conditions: Sp2/0 target cells, treated 4 hours at 37° C. with antibody fragment dilutions or 10 μg/ml peptide
sequence,measurement,setting,value
KYICNSSCM (p53 CTL reactive peptide) [p53 peptide only],% Specific 51Cr Release at E/T Ratio 5:1,effector:target 5:1,41%
same,% Specific 51Cr Release at E/T Ratio 10:1,effector:target 10:1,57%
same,% Specific 51Cr Release at E/T Ratio 20:1,effector:target 20:1,46%
